Converted amounts (≈) assume the structure as drawn. The source made the active and inactive calls. The calls are words filed in the database; no cut-off is given here.
How the values were obtained:
DNA [1] = test: Binding affinity to pBR322 plasmid DNA (unknown origin) assessed as DNA intercalation by measuring reduction in electrophoretic shift incubated for 30 mins by EtBr staining based agarose gel electrophoresis; type: nucleic-acid assay; details: dose 5-20 µM
LN-229 = test: Antiproliferative activity against human LN-229 cells assessed as inhibition of cell growth incubated for 72 hrs by MTT assay; type: functional, cell-based; details: LN-229, 72 h
[2] = Drug localization in lysosome of human HCT-116 cells assessed as appearance of yellow color at 2 uM incubated for 9 hrs by LysoTracker Green staining based fluorescence microscopic analysis; type: ADME, subcellular; details: hct-116, 9 h
[3] = Drug uptake in human HCT-116 cells assessed as increase in intracellular accumulation at 2 uM measured after 5 mins by Hoechst 33342 staining based fluorescence confocal microscopic analysis; type: ADME, cell-based; details: hct-116, 5 min
K562 = test: Antiproliferative activity against human K562 cells assessed as inhibition of cell growth incubated for 72 hrs by MTT assay; type: functional, cell-based; details: K562, 72 h
[4] = target: T1, DNA topoisomerase 1 (Homo sapiens) (UniProt P11387); test: Inhibition of topoisomerase 1 (unknown origin) assessed as reduction in unwinding of supercoiled pBR322 plasmid DNA by measuring reduction in electrophoretic mobility at 5 to 20 uM incubated for 30 mins by EtBr staining based agarose gel electrophoresis; details: dose 5-20 µM
T1 sequence (whole entry): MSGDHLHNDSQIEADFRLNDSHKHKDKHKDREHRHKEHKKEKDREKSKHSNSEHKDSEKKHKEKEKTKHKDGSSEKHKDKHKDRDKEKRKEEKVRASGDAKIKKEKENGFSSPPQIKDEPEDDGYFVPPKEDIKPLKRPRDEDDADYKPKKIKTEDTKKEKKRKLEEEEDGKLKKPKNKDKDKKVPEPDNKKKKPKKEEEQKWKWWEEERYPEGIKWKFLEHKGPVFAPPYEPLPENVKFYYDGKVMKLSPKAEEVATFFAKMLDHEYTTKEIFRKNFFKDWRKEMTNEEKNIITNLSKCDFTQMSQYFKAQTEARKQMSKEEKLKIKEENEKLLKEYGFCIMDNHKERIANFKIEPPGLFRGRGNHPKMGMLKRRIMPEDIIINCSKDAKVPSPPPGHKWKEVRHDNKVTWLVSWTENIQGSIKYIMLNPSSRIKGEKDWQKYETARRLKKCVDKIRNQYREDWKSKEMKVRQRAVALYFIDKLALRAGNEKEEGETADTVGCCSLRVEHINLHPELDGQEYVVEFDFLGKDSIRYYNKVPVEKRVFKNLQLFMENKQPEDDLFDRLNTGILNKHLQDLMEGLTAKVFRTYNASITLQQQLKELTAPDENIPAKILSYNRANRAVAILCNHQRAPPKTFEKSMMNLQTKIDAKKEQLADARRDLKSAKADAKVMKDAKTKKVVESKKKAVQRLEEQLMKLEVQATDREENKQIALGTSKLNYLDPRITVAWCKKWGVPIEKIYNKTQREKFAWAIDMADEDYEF

HCT-116 [5] = test: Induction of oxidative stress in human HCT-116 cells assessed as increase in ROS-positive cells at 10 uM incubated for 2 hrs by Abcam-ROS deep red staining based fluorescence microscopic analysis; type: functional, cell-based
[6] = Antiproliferative activity against human DND41 cells assessed as inhibition of cell growth incubated for 72 hrs by MTT assay; type: functional, cell-based; details: DND41, 72 h
HL-60 = test: Antiproliferative activity against human HL-60 cells assessed as inhibition of cell growth incubated for 72 hrs by MTT assay; type: functional, cell-based; details: HL-60, 72 h
HCT-116 [7] = test: Antiproliferative activity against human HCT-116 cells assessed as inhibition of cell growth incubated for 72 hrs by MTT assay; type: functional, cell-based; details: HCT-116, 72 h
Calf thymus DNA [8] = test: Binding affinity to calf thymus DNA assessed as binding constant at 10 uM by fluorescence spectroscopy analysis; type: nucleic-acid assay; details: Bos taurus
[9] = Octanol/water partition coefficient, logP of compound at pH 7.4 by HPLC analysis; type: physicochemical
[10] = Drug uptake in human HCT-116 cells assessed as increase in intracellular accumulation at 2 uM measured after 24 hrs by flow cytometry analysis; type: ADME, cell-based; details: hct-116, 24 h
[11] = Drug uptake in hFB-hTERT6 cells; type: ADME, cell-based; details: human
Z-138 = test: Antiproliferative activity against human Z138 cells assessed as inhibition of cell growth incubated for 72 hrs by MTT assay; type: functional, cell-based; details: Z-138, 72 h
[12] = Cytotoxicity against hFB-hTERT6 cells assessed as inhibition of cell growth incubated for 72 hrs by MTT assay; type: toxicity, cell-based; details: human
CAPAN-1 = test: Antiproliferative activity against human CAPAN-1 cells assessed as inhibition of cell growth incubated for 72 hrs by MTT assay; type: functional, cell-based; details: CAPAN-1, 72 h
HCT-116 [13] = test: Induction of oxidative stress in human HCT-116 cells assessed as increase in ROS-positive cells at 10 uM incubated for 2 hrs by flow cytometry analysis; type: functional, cell-based
[14] = Antiproliferative activity against multidrug resistant human K562/4 cells expressing P-gp assessed as inhibition of cell growth incubated for 72 hrs by MTT assay; type: functional, cell-based; details: K562/4, 72 h
[15] = Solubility of compound in deionized water at pH 6; type: physicochemical
NCI-H1975 = test: Antiproliferative activity against human NCI-H1975 cells assessed as inhibition of cell growth incubated for 72 hrs by MTT assay; type: functional, cell-based; details: NCI-H1975, 72 h
Calf thymus DNA [16] = test: Binding affinity to calf thymus DNA assessed as dissociation constant at 10 uM by fluorescence spectroscopy analysis; type: nucleic-acid assay, Bos taurus
[17] = Drug localization in mitochondria of human HCT-116 cells assessed as appearance of yellow color at 2 uM incubated for 9 hrs by MitoTracker deep red staining based fluorescence microscopic analysis; type: ADME; details: hct-116, 9 h
[18] = Drug localization in nucleus of human HCT-116 cells assessed as appearance of magenta color at 2 uM incubated for 24 hrs by Hoechst 33342 staining based fluorescence microscopic analysis; type: ADME, subcellular; details: hct-116, 24 h
DNA [19] = test: Binding affinity to pBR322 plasmid DNA (unknown origin) assessed as DNA intercalation by measuring reduction in electrophoretic shift at 5 to 20 uM incubated for 30 mins by EtBr staining based agarose gel electrophoresis; type: nucleic-acid assay; details: dose 5-20 µM
[20] = Drug localization in mitochondria of human HCT-116 cells assessed as appearance of yellow color at 2 uM incubated for 24 hrs by MitoTracker deep red staining based fluorescence microscopic analysis; type: ADME; details: hct-116, 24 h
[21] = Drug uptake in human HCT-116 cells assessed as increase in intracellular accumulation at 2 uM measured after 24 hrs by Hoechst 33342 staining based fluorescence confocal microscopic analysis; type: ADME, cell-based; details: hct-116, 24 h
[22] = Drug localization in lysosome of human HCT-116 cells assessed as appearance of yellow color at 2 uM incubated for 24 hrs by LysoTracker Green staining based fluorescence microscopic analysis; type: ADME, subcellular; details: hct-116, 24 h

IC50 (HL-60) [nM]	IC50 (HCT-116 [7]) [nM]	Kb (Calf thymus DNA [8])	logD [9]	Drug uptake [10]	Drug uptake [11]	IC50 (NCI-H1975) [nM]	SMILES	IC50 (LN-229) [nM]	Activity (HCT-116 [5])	IC50 [6] [nM]	IC50 (Z-138) [nM]	IC50 (CAPAN-1) [nM]	Activity (HCT-116 [13])	IC50 [14] [nM]	Kd (Calf thymus DNA [16]) [nM]	other results
2100	1900	0.35 10^6/M	1.56	Active	Active	2300	N[C@H]1CCN(C(=O)C2Cc3c(O)c4c(c(O)c3C2)C(=O)c2ccccc2C4=O)C1	700	Active	2400	2500	1000	Active	1900	2900	Activity (DNA [1]): Dose-Dependent Effect; Drug uptake [2]: Active; Drug uptake [3]: Active; IC50 (K562): 1900 nM; inhibition [4]: Active; IC50 at 72 h [12]: 4200 nM; solubility [15]: 55 mg/mL (≈ 140 mM); Drug uptake [17]: Not Active
220	300	1.4 10^6/M	0.3	Active	Active	620	COc1cccc2c1C(=O)c1c(O)c3c(c(O)c1C2=O)C[C@@](O)(C(=O)CO)C[C@@H]3O[C@H]1C[C@H](N)[C@H](O)[C@H](C)O1 [DOXORUBICIN]	1820	inactive	760	1590	1710	inactive	4200	700	Drug uptake [18]: Active; Activity (DNA [19]): Active; Drug uptake [20]: Not Active; Drug uptake [21]: Active; Drug uptake [22]: Active

— ChEMBL document CHEMBL5528031, “Synthesis and antitumor activity of cyclopentane-fused anthraquinone derivatives” (Eur J Med Chem, 2024)
